According to publication PMC3923778 (PLoS Currents, 2014):
“Also recorded” adds a separate entry of the source.

How the values were obtained:
Type in all cases: in vivo, mouse
[1] = tested on: disease-relevant genes; test: Taqman-qPCR of disease-relevant genes; conditions: chronic administration; 13 weeks of age; lower dose group study
Experimental: Total RNA was extracted with the mini-RNA kit accordingly to manufacturer instructions (Qiagen). Reverse transcription (RT) was performed using MMLV superscript reverse transcriptase (Invitrogen) and random hexamers (Operon) and all Taqman-qPCR reactions were performed using the Chromo4 Real-Time PCR Detector (BioRad) as described. Expression level of the gene-of-interest was normalised to the geometric mean of three endogenous housekeeping genes (Primer Design) as described. […]

[2] = tested on: R6/2 mice; test: Lower dose behavioral efficacy study in R6/2 mice (Psychogenic); conditions: lower doses, 0.3 – 3 mg/kg
[3] = tested on: R6/2 mice; test: Rear Climbing Test; conditions: for Rear Climbing Test Rearing Frequency: p vs Vehicle-treated R6/2 mice / Rear Climbing Test Climbing Instances: p vs Vehicle-treated R6/2 mice / Rear Climbing Test Latency to Climb: p vs Vehicle-treated R6/2 mice / Rear Climbing Test Time Spent Climbing: p vs Vehicle-treated R6/2 mice: BID
Experimental: (§1) Motor function testing including open field and rear climbing tests were commenced at 4 weeks of age and continued at weeks 6, 8 and 12, for grip strength test at age weeks 4 and 12 and for rotarod at age weeks 4, 6 and 8. Compound treatment was started at 4 weeks of age after the baseline behavioral tests.
Rear climbing test was performed at age weeks 4, 6, 8 and 12. The mice were tested on Tuesdays. Each animal was placed into custom made pencil holder, and was scored for 5 minutes. During this period the following events were noted: 1) number of times the mouse rears without touching the mesh walls, 2) latency to climb (lifting 4 paws from the floor is labeled climbing), 3) climbing time, and 4) climbing instances.
(§2) All values are presented as mean ± Standard Error of Mean (SEM), and differences are considered to be statistically significant at the p < 0.05 level. Statistical analysis was performed using StatsDirect statistical software. Differences between group means were analyzed by 1-way-ANOVA followed by Dunnett’s test (comparison to the control (=vehicle treated TG mice) group). The acquisition of the Cued two-choice swim test was analyzed using Fisher’s exact test.

[4] = tested on: R6/2 mice; test: Open Field Test; parameters: key to Open Field Total Distance: direction of significant change vs Vehicle-treated R6/2 mice / Open Field Center Distance: direction of significant change vs Vehicle-treated R6/2 mice: ▲: significant enhancement compared to Vehicle-treated R6/2 mice (One-way ANOVA, Dunnett’s post-hoc); ▼: significant impairment compared to Vehicle-treated R6/2 mice (One-way ANOVA, Dunnett’s post-hoc)
Experimental: as §1
Open field test was performed at age weeks 4, 6, 8 and 12. The mice were tested on Mondays at approximately 10-30 lux of red light. The mice were brought to the experimental room for at least 1 h acclimation to the experimental room conditions prior to testing. Activity chambers (Med Associates Inc., St Albans, VT; 27 x 27 x 20.3 cm) are equipped with IR beams. Mice were placed in the center of the chamber and their behavior was recorded for 30 min in 5-minute bins. Quantitative analysis was performed on the following five dependent measures: total locomotion, locomotion in the center of the open field, rearing rate in the center, total rearing frequency and velocity.
as §2

[5] = Age Week 4, 10 mg/kg p.o., ANOVA
[6] = Age Week 4, 30 mg/kg p.o., ANOVA
[7] = Age Week 6, 10 mg/kg p.o., ANOVA
[8] = Age Week 6, 30 mg/kg p.o., ANOVA
[9] = Age Week 8, 10 mg/kg p.o., ANOVA
[10] = Age Week 8, 30 mg/kg p.o., ANOVA
[11] = Age Week 12, 10 mg/kg p.o., ANOVA
[12] = Age Week 12, 30 mg/kg p.o., ANOVA
[13] = chronic administration in R6/2 mice
[14] = Age Week 4, 10 mg/kg p.o., BID, ANOVA
[15] = Age Week 4, 30 mg/kg p.o., BID, ANOVA
[16] = Age Week 6, 10 mg/kg p.o., BID, ANOVA
[17] = Age Week 6, 30 mg/kg p.o., BID, ANOVA
[18] = Age Week 8, 10 mg/kg p.o., BID, ANOVA
[19] = Age Week 8, 30 mg/kg p.o., BID, ANOVA
[20] = Age Week 12, 10 mg/kg p.o., BID
[21] = Age Week 12, 10 mg/kg p.o., BID, ANOVA
[22] = Age Week 12, 30 mg/kg p.o., BID
[23] = Age Week 12, 30 mg/kg p.o., BID, ANOVA

## CN1C(=O)c2nc(Cc3ccc(C(F)(F)F)cc3)[nH]c2N2C1=N[C@H]1CCC[C@H]12 [SCH-51866, (+)-cis-5,6a,7,8,9,9a-hexahydro-2-[4-[trifluro-methyl]phenylmethyl]-5-methyl-cylopent[4,5]imidazo [2,1-b]purin-4(3H)one]
[1]
  expression of disease-relevant genes in striatum, cortex and cerebellum: did not have a statistically significant effect; also recorded: no effects on the dysregulation of these genes
[2]
  effect on disease progression / endpoints (rotarod, grip strength, open field, survival): no improvement noted in any endpoint; also recorded: no effect in ameliorating disease progression
[3]; Age Week 4, 10 mg/kg p.o.
  Rear Climbing Test Rearing Frequency: p vs Vehicle-treated R6/2 mice: p=0.507
[3]; [5]
  Rear Climbing Test Climbing Instances: p vs Vehicle-treated R6/2 mice: ANOVA: p=0.484
  Rear Climbing Test Latency to Climb: p vs Vehicle-treated R6/2 mice: ANOVA: p=0.365
  Rear Climbing Test Time Spent Climbing: p vs Vehicle-treated R6/2 mice: ANOVA: p=0.853
[3]; Age Week 4, 30 mg/kg p.o.
  Rear Climbing Test Rearing Frequency: p vs Vehicle-treated R6/2 mice: p=0.186
[3]; [6]
  Rear Climbing Test Climbing Instances: p vs Vehicle-treated R6/2 mice: ANOVA: p=0.484
  Rear Climbing Test Latency to Climb: p vs Vehicle-treated R6/2 mice: ANOVA: p=0.365
  Rear Climbing Test Time Spent Climbing: p vs Vehicle-treated R6/2 mice: ANOVA: p=0.853
[3]; [7]
  Rear Climbing Test Climbing Instances: p vs Vehicle-treated R6/2 mice: ANOVA: p=0.120
  Rear Climbing Test Latency to Climb: p vs Vehicle-treated R6/2 mice: ANOVA: p=0.257
  Rear Climbing Test Rearing Frequency: p vs Vehicle-treated R6/2 mice: ANOVA: p=0.203
  Rear Climbing Test Time Spent Climbing: p vs Vehicle-treated R6/2 mice: ANOVA: p=0.291
[3]; [8]
  Rear Climbing Test Climbing Instances: p vs Vehicle-treated R6/2 mice: ANOVA: p=0.120
  Rear Climbing Test Latency to Climb: p vs Vehicle-treated R6/2 mice: ANOVA: p=0.257
  Rear Climbing Test Rearing Frequency: p vs Vehicle-treated R6/2 mice: ANOVA: p=0.203
  Rear Climbing Test Time Spent Climbing: p vs Vehicle-treated R6/2 mice: ANOVA: p=0.291
[3]; [9]
  Rear Climbing Test Climbing Instances: p vs Vehicle-treated R6/2 mice: ANOVA: p=0.166
  Rear Climbing Test Latency to Climb: p vs Vehicle-treated R6/2 mice: ANOVA: p=0.193
  Rear Climbing Test Rearing Frequency: p vs Vehicle-treated R6/2 mice: ANOVA: p=0.782
  Rear Climbing Test Time Spent Climbing: p vs Vehicle-treated R6/2 mice: ANOVA: p=0.750
[3]; [10]
  Rear Climbing Test Climbing Instances: p vs Vehicle-treated R6/2 mice: ANOVA: p=0.166
  Rear Climbing Test Latency to Climb: p vs Vehicle-treated R6/2 mice: ANOVA: p=0.193
  Rear Climbing Test Rearing Frequency: p vs Vehicle-treated R6/2 mice: ANOVA: p=0.782
  Rear Climbing Test Time Spent Climbing: p vs Vehicle-treated R6/2 mice: ANOVA: p=0.750
[3]; [11]
  Rear Climbing Test Climbing Instances: p vs Vehicle-treated R6/2 mice: ANOVA: p=0.671
  Rear Climbing Test Latency to Climb: p vs Vehicle-treated R6/2 mice: ANOVA: p=0.846
  Rear Climbing Test Rearing Frequency: p vs Vehicle-treated R6/2 mice: ANOVA: p=0.122
  Rear Climbing Test Time Spent Climbing: p vs Vehicle-treated R6/2 mice: ANOVA: p=0.724
[3]; [12]
  Rear Climbing Test Climbing Instances: p vs Vehicle-treated R6/2 mice: ANOVA: p=0.671
  Rear Climbing Test Latency to Climb: p vs Vehicle-treated R6/2 mice: ANOVA: p=0.846
  Rear Climbing Test Rearing Frequency: p vs Vehicle-treated R6/2 mice: ANOVA: p=0.122
  Rear Climbing Test Time Spent Climbing: p vs Vehicle-treated R6/2 mice: ANOVA: p=0.724
[3]; [13]
  rearing frequency and latency to climb a custom-made pencil holder, effect in words: no improvement
[4]; [14]
  Open Field Average Velocity: p vs Vehicle-treated R6/2 mice: ANOVA: p=0.461
  Open Field Center Distance: p vs Vehicle-treated R6/2 mice: ANOVA: p=0.701
  Open Field Rearing Rate in Center: p vs Vehicle-treated R6/2 mice: ANOVA: p=0.341
  Open Field Total Distance: p vs Vehicle-treated R6/2 mice: ANOVA: p=0.792
  Open Field Total Rearing Frequency: p vs Vehicle-treated R6/2 mice: ANOVA: p=0.542
[4]; [15]
  Open Field Average Velocity: p vs Vehicle-treated R6/2 mice: ANOVA: p=0.461
  Open Field Center Distance: p vs Vehicle-treated R6/2 mice: ANOVA: p=0.701
  Open Field Rearing Rate in Center: p vs Vehicle-treated R6/2 mice: ANOVA: p=0.341
  Open Field Total Distance: p vs Vehicle-treated R6/2 mice: ANOVA: p=0.792
  Open Field Total Rearing Frequency: p vs Vehicle-treated R6/2 mice: ANOVA: p=0.542
[4]; [16]
  Open Field Average Velocity: p vs Vehicle-treated R6/2 mice: ANOVA: p=0.686
  Open Field Center Distance: p vs Vehicle-treated R6/2 mice: ANOVA: p=0.305
  Open Field Rearing Rate in Center: p vs Vehicle-treated R6/2 mice: ANOVA: p=0.594
  Open Field Total Distance: p vs Vehicle-treated R6/2 mice: ANOVA: p=0.101
  Open Field Total Rearing Frequency: p vs Vehicle-treated R6/2 mice: ANOVA: p=0.639
[4]; [17]
  Open Field Average Velocity: p vs Vehicle-treated R6/2 mice: ANOVA: p=0.686
  Open Field Center Distance: p vs Vehicle-treated R6/2 mice: ANOVA: p=0.305
  Open Field Rearing Rate in Center: p vs Vehicle-treated R6/2 mice: ANOVA: p=0.594
  Open Field Total Distance: p vs Vehicle-treated R6/2 mice: ANOVA: p=0.101
  Open Field Total Rearing Frequency: p vs Vehicle-treated R6/2 mice: ANOVA: p=0.639
[4]; [18]
  Open Field Average Velocity: p vs Vehicle-treated R6/2 mice: ANOVA: p=0.138
  Open Field Center Distance: p vs Vehicle-treated R6/2 mice: ANOVA: p=0.693
  Open Field Rearing Rate in Center: p vs Vehicle-treated R6/2 mice: ANOVA: p=0.519
  Open Field Total Distance: p vs Vehicle-treated R6/2 mice: ANOVA: p=0.333
  Open Field Total Rearing Frequency: p vs Vehicle-treated R6/2 mice: ANOVA: p=0.395
[4]; [19]
  Open Field Average Velocity: p vs Vehicle-treated R6/2 mice: ANOVA: p=0.138
  Open Field Center Distance: p vs Vehicle-treated R6/2 mice: ANOVA: p=0.693
  Open Field Rearing Rate in Center: p vs Vehicle-treated R6/2 mice: ANOVA: p=0.519
  Open Field Total Distance: p vs Vehicle-treated R6/2 mice: ANOVA: p=0.333
  Open Field Total Rearing Frequency: p vs Vehicle-treated R6/2 mice: ANOVA: p=0.395
[4]; [20]
  Open Field Center Distance: p vs Vehicle-treated R6/2 mice: p=0.112
  Open Field Total Distance: p vs Vehicle-treated R6/2 mice: p=0.454
[4]; [21]
  Open Field Average Velocity: p vs Vehicle-treated R6/2 mice: ANOVA: p=0.197
  Open Field Rearing Rate in Center: p vs Vehicle-treated R6/2 mice: ANOVA: p=0.423
  Open Field Total Rearing Frequency: p vs Vehicle-treated R6/2 mice: ANOVA: p=0.703
[4]; [22]
  Open Field Center Distance: direction of significant change vs Vehicle-treated R6/2 mice: ▼
  Open Field Center Distance: p vs Vehicle-treated R6/2 mice: 0.012
  Open Field Total Distance: direction of significant change vs Vehicle-treated R6/2 mice: ▼
  Open Field Total Distance: p vs Vehicle-treated R6/2 mice: 0.016
[4]; [23]
  Open Field Average Velocity: p vs Vehicle-treated R6/2 mice: ANOVA: p=0.197
  Open Field Rearing Rate in Center: p vs Vehicle-treated R6/2 mice: ANOVA: p=0.423
  Open Field Total Rearing Frequency: p vs Vehicle-treated R6/2 mice: ANOVA: p=0.703
[4]; [13]
  Open field total distance traveled, distance in center, total rear frequency, average velocity, effect in words: no improvement
[4]; highest dose group, 12 weeks of age
  performance in open field evaluation, effect in words: modest but significant worsening of performance
